Assay [1] can be described thus: Phase 1: hematologic and hemolytic laboratory parameters in SCD patients. It is filed as in vivo, human. An excerpt: Laboratory changes relative to pretreatment for each pt in the MD cohort as of Jul. In 2 of 3 SCD MD-1 pts treated with Compound 1/placebo (currently blinded), Hb increased by >1 g/dL, % reticulocytes decreased, and markers of hemolysis were improved after 14 days of treatment (compared to pre-treatment levels). Hematologic parameters returned to pre-treatment levels 4 to 7 days post-treatment (data not shown) without clinical AEs.
A median 1.2 g/dL Hb increase (range 0, 2.3) and a median 60% reticulocyte decrease (range −39%, −81%) over baseline were observed. The onset of the increase in Hb was rapid and continued to increase in most patients through the end of treatment, indicating the potential for additional improvement with extended dosing. […] A median 36% LDH decrease (range +18%, −57%) and a median 35% bilirubin decrease (range −7%, −63%) over baseline were observed, which is consistent with the hypothesis that Compound 1 improves RBC survival and reduces RBC turnover.

Assay [2] has as its system p50 (PO2 at 50% hemoglobin saturation). The assay can be described thus: Phase 1: p50 (oxygen affinity) in SCD patients. It is filed as in vivo, human. Here is the method: In SCD patients, the mean absolute change in p50, relative to baseline, measured 24 hours after a single 700 mg dose of Compound 1, was −4 mmHg.
With respect to the bar graphs representing the “Untreated” and “Treated” subjects in the SCD MAD cohort, the bar on the left side represents the P50 measured Pre-Dose, and the bar on the right side represents the P50 measured after 14 days of Compound 1, 300 mg once daily. SCD RBCs have higher P50 at baseline compared to HV RBCs. In the MAD cohort in SCD patients (300 mg QD for 14 days), the mean absolute change in p50, relative to baseline, measured 24 hours after the final dose of Compound 1, was −4 mmHg.
The oxygen affinity of RBCs was measured in patient blood using a Hemox Analyzer (TCS Scientific Corp.), an automatic system for the recording of blood oxygen equilibrium curves and related phenomena. The Hemox Analyzer was used according to standard methods to determine the hemoglobin-oxygen dissociation curves for whole blood samples, numerically characterized by the p50, the partial pressure of oxygen at which hemoglobin is 50% saturated. […] In the case of hemoglobin, the wavelength of maximum absorbance is the measuring wavelength (560 nm), while the reference wavelength is at the isosbestic point at (570 nm). The absorbance at the isosbestic point remains unchanged during the deoxygenation process of the hemoglobin, however the measuring wavelength (560 nm) undergoes a drastic change in absorbance. This change is detected by the electronic circuitry and is plotted as the log/ratio change between the two wavelengths. The log/ratio measurement at 560 nm and 570 nm is utilized to measure the optical absorbance change during the deoxygenation of the hemoglobin. Simultaneously with the measurement of the hemoglobin absorbance, the oxygen concentration is directly measured in the sample using a Clark electrode. […]

Setting [3] is: SCD MAD1, 300 mg once daily 14 days, of 7 patients.

“And” between values parts separate entries of the source, which are not always exact repeats. Equal entries are not always repeated.

For `O=C([C@H](CO)c1ccccc1)N1CC2=C(C1)CN(S(=O)(=O)c1cnc3c(c1)OCCO3)C2` (single isomer, unassigned) [Compound 1], the “patients with >1 g/dL increase in hemoglobin” value in assay [1] (SCD MAD1, 300 mg once daily 14 days) is given as 6/7. Moreover, in assay [1] (SCD MAD1, 300 mg once daily 14 days (n = 7), range 0, 2.3), the “median Hb increase over baseline” value was 1.2 g/dL. In addition, the “patients with a decrease in reticulocytes” value in assay [1] (setting [3]) is 7 and 7/7. For the same compound, in assay [1] (setting [3]), the “patients with a decrease in total bilirubin” value came out at 7. For the same compound, the “median LDH decrease over baseline” value in assay [1] (SCD MAD1, 300 mg once daily 14 days, range +18%, −57%) was found to be 36%. Also, in assay [1] (SCD MAD1, 300 mg once daily 14 days, range −7%, −63%), the “median bilirubin decrease over baseline” value worked out at 35%. Further, the “median reticulocyte decrease over baseline” value in assay [1] (SCD MAD1, 300 mg once daily 14 days, range −39%, −81%) is recorded as 60%. The “increase in Hb compared with pre-dose on day 1” value in assay [1] (one SCD patient, 300 mg once daily, sustained through day 21, no hydroxyurea) was greater than 2 g/dL. The “mean absolute change in p50, relative to baseline” value is on record as −4 mmHg in assay [2] (SCD 300 mg QD for 14 days, 24 hours after the final dose) and −4 mmHg in assay [2] (SCD, 24 hours after single 700 mg dose). For the same compound, the “p50 (Oxygen affinity curve)” value in assay [2] (SCD single 700 mg, Post-dose (24 hours), median (range), pre-dose 29.4 (26.1, 32.3)) is on record as 25.8 (23.3, 26.8).

Values taken from patent publication US12128035B2, “Activating pyruvate kinase R” (Novo Nordisk Health Care AG, priority 2021, dated 2024).
